Source: publication PMC6370202, “The catabolism of 3,3’-thiodipropionic acid in Variovorax paradoxus strain TBEA6: A proteomic analysis” (PLoS ONE, 2019)

Tests used:
Ech-20 (VPARA_05520) = target: T1, Ech-20 (VPARA_05520) (Variovorax paradoxus, UniProt A0A0H2MCT8); test: thermal shift assay, SYPRO Orange; assay type: binding; conditions: 2 uM protein, 2 mM ligand, 100 mM Tris/HCl pH 8.0; increased stability; no shift with TDP
T1 construct: recombinant from pET-32a(+)::ech-20 in E. coli BL21 (DE3) pLysS; Ni-Sepharose purified
T1 sequence (A0A0H2MCT8 1-154): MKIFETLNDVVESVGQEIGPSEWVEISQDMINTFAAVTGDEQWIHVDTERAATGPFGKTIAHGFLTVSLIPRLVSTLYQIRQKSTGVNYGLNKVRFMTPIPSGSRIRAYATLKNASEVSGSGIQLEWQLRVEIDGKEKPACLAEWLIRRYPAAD

[1] = target: T2, PctRe (propionyl-CoA transferase of Ralstonia eutropha) (Cupriavidus necator, UniProt Q0K874); test: enzymatic CoA transfer, product by HPLC/MS; assay type: biochemical; conditions: 2 mM TDP, 1 mM acetyl-CoA, 20 ug PctRe in 1 ml, 100 mM Tris/HCl pH 8.0, 30 °C, 45 min
T2 construct: gene pct; recombinant from pET-19b::pctRe in E. coli BL21 (DE3) pLysS; N-terminal His-tag; Ni-Sepharose purified
T2 sequence (Q0K874 1-542): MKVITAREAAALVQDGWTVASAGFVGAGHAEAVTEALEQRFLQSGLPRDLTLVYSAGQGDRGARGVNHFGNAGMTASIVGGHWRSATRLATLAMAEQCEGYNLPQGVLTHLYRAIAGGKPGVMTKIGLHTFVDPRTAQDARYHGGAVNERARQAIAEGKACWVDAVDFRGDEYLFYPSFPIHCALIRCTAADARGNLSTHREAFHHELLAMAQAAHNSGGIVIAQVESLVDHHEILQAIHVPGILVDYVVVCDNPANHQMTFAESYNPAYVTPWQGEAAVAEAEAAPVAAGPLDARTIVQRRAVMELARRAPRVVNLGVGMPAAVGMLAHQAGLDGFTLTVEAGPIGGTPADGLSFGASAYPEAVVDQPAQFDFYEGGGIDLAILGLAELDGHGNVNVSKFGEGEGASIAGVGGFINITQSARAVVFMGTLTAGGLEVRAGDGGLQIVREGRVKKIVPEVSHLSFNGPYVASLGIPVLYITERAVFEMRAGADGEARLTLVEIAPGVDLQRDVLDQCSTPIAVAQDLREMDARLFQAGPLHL

Compound: CC(C)(COP(=O)(O)OP(=O)(O)OC[C@H]1O[C@@H](n2cnc3c(N)ncnc32)[C@H](O)[C@@H]1OP(=O)(O)O)[C@@H](O)C(=O)NCCC(=O)NCCSC(=O)CCSCCC(=O)O [TDP-CoA]
- shift in the melting temperature (Ech-20 (VPARA_05520)): a shift in the melting temperature of Ech-20 in the presence of TDP-CoA was detected

Compound: O=C(O)CCSCCC(=O)O [TDP]
- enzymatic CoA transfer, product by HPLC/MS [1]: transfer of CoA from acetyl-CoA to TDP was accomplished using recombinant PctRe

Compound: CC(=O)SCCNC(=O)CCNC(=O)[C@H](O)C(C)(C)COP(=O)(O)OP(=O)(O)OC[C@H]1O[C@@H](n2cnc3c(N)ncnc32)[C@H](O)[C@@H]1OP(=O)(O)O [acetyl-CoA]
- enzymatic CoA transfer, product by HPLC/MS ([1]; CoA donor): transfer of CoA from acetyl-CoA to TDP was accomplished using recombinant PctRe
